Test results reported in patent US20130237511A1, “Copper Ion Delivery Platform for Pharmaceutical Agents” (University System of Georgia, priority 2012, published 2013).

Columns and labels:
[1] = ionic strengths 0.01 to 1, 25 and 37° C.; cited from earlier work
SF-539 = assay: NCI 60 cell line panel, single dose; format: cell-based; conditions: CNS Cancer, SF-539, single dose
U251 = assay: NCI 60 cell line panel, single dose; format: cell-based; conditions: CNS Cancer
SK-OV-3 = assay: NCI 60 cell line panel, single dose; format: cell-based; conditions: Ovarian Cancer, SK-OV-3, single dose
Excerpt: (§1) This complex performed at a similar level compared to individual tests for copper(II) sulfate as well as quinine sulfate (NSC).

EKVX = assay: NCI 60 cell line panel, single dose; format: cell-based; conditions: Non-Small Cell Lung Cancer
Excerpt: as §1

ACHN = assay: NCI 60 cell line panel, single dose; format: cell-based; conditions: Renal Cancer
Excerpt: as §1

T-47D = assay: NCI 60 cell line panel, single dose; format: cell-based; conditions: Breast Cancer
Excerpt: as §1

HS 578T = assay: NCI 60 cell line panel, single dose; format: cell-based; conditions: Breast Cancer
Excerpt: as §1

OVCAR-8 = assay: NCI 60 cell line panel, single dose; format: cell-based; conditions: Ovarian Cancer, OVCAR-8, single dose
Excerpt: as §1

DU-145 = assay: NCI 60 cell line panel, single dose; format: cell-based; conditions: Prostate Cancer, DU-145, single dose
Excerpt: as §1

SW-620 = assay: NCI 60 cell line panel, single dose; format: cell-based; conditions: Colon Cancer, SW-620, single dose
Excerpt: as §1

SK-MEL-28 = assay: NCI 60 cell line panel, single dose; format: cell-based; conditions: Melanoma, SK-MEL-28, single dose
Excerpt: as §1

HL-60(TB) = assay: NCI 60 cell line panel, single dose; format: cell-based; conditions: Leukemia
Excerpt: as §1

UACC-257 = assay: NCI 60 cell line panel, single dose; format: cell-based; conditions: Melanoma, UACC-257, single dose
Excerpt: as §1

MDA-MB-231/ATCC = assay: NCI 60 cell line panel, single dose; format: cell-based; conditions: Breast Cancer
Excerpt: as §1

CCRF-CEM = assay: NCI 60 cell line panel, single dose; format: cell-based; conditions: Leukemia
Excerpt: as §1

HOP-62 = assay: NCI 60 cell line panel, single dose; format: cell-based; conditions: Non-Small Cell Lung Cancer, HOP-62, single dose
Excerpt: as §1

NCI/ADR-RES = assay: NCI 60 cell line panel, single dose; format: cell-based; conditions: Ovarian Cancer
Excerpt: as §1

UO-31 = assay: NCI 60 cell line panel, single dose; format: cell-based; conditions: Renal Cancer, UO-31, single dose
Excerpt: as §1

OVCAR-4 = assay: NCI 60 cell line panel, single dose; format: cell-based; conditions: Ovarian Cancer, OVCAR-4, single dose
Excerpt: as §1

NCI-H226 = assay: NCI 60 cell line panel, single dose; format: cell-based; conditions: Non-Small Cell Lung Cancer
Excerpt: as §1

A549/ATCC = assay: NCI 60 cell line panel, single dose; format: cell-based; conditions: Non-Small Cell Lung Cancer
Excerpt: as §1

MDA-MB-435 = assay: NCI 60 cell line panel, single dose; format: cell-based; conditions: Melanoma, MDA-MB-435, single dose
Excerpt: as §1

MCF7 = assay: NCI 60 cell line panel, single dose; format: cell-based; conditions: Breast Cancer
Excerpt: as §1

NCI-H23 = assay: NCI 60 cell line panel, single dose; format: cell-based; conditions: Non-Small Cell Lung Cancer
Excerpt: as §1

LOX IMVI = assay: NCI 60 cell line panel, single dose; format: cell-based; conditions: Melanoma
Excerpt: as §1

MALME-3M = assay: NCI 60 cell line panel, single dose; format: cell-based; conditions: Melanoma
Excerpt: as §1

SR = assay: NCI 60 cell line panel, single dose; format: cell-based; conditions: Leukemia
Excerpt: as §1

MOLT-4 = assay: NCI 60 cell line panel, single dose; format: cell-based; conditions: Leukemia, MOLT-4, single dose
Excerpt: as §1

MDA-MB-468 = assay: NCI 60 cell line panel, single dose; format: cell-based; conditions: Breast Cancer, MDA-MB-468, single dose
Excerpt: as §1

RPMI-8226 = assay: NCI 60 cell line panel, single dose; format: cell-based; conditions: Leukemia, RPMI-8226, single dose
Excerpt: as §1

RXF 393 = assay: NCI 60 cell line panel, single dose; format: cell-based; conditions: Renal Cancer, RXF 393, single dose
Excerpt: as §1

IGROV1 = assay: NCI 60 cell line panel, single dose; format: cell-based; conditions: Ovarian Cancer
Excerpt: as §1

HCT-15 = assay: NCI 60 cell line panel, single dose; format: cell-based; conditions: Colon Cancer, HCT-15, single dose
Excerpt: as §1

BT-549 = assay: NCI 60 cell line panel, single dose; format: cell-based; conditions: Breast Cancer, BT-549, single dose
Excerpt: as §1

OVCAR-5 = assay: NCI 60 cell line panel, single dose; format: cell-based; conditions: Ovarian Cancer, OVCAR-5, single dose
Excerpt: as §1

KM12 = assay: NCI 60 cell line panel, single dose; format: cell-based; conditions: Colon Cancer
Excerpt: as §1

NCI-H522 = assay: NCI 60 cell line panel, single dose; format: cell-based; conditions: Non-Small Cell Lung Cancer
Excerpt: as §1

UACC-62 = assay: NCI 60 cell line panel, single dose; format: cell-based; conditions: Melanoma, UACC-62, single dose
Excerpt: as §1

HCC-2998 = assay: NCI 60 cell line panel, single dose; format: cell-based; conditions: Colon Cancer, HCC-2998, single dose
Excerpt: as §1

OVCAR-3 = assay: NCI 60 cell line panel, single dose; format: cell-based; conditions: Ovarian Cancer, OVCAR-3, single dose
Excerpt: as §1

SK-MEL-2 = assay: NCI 60 cell line panel, single dose; format: cell-based; conditions: Melanoma, SK-MEL-2, single dose
Excerpt: as §1

M14 = assay: NCI 60 cell line panel, single dose; format: cell-based; conditions: Melanoma
Excerpt: as §1

786-0 = assay: NCI 60 cell line panel, single dose; format: cell-based; conditions: Renal Cancer, 786-0, single dose
Excerpt: as §1

SN12C = assay: NCI 60 cell line panel, single dose; format: cell-based; conditions: Renal Cancer
Excerpt: as §1

TK-10 = assay: NCI 60 cell line panel, single dose; format: cell-based; conditions: Renal Cancer, TK-10, single dose
Excerpt: as §1

NCI-H460 = assay: NCI 60 cell line panel, single dose; format: cell-based; conditions: Non-Small Cell Lung Cancer
Excerpt: as §1

COLO 205 = assay: NCI 60 cell line panel, single dose; format: cell-based; conditions: Colon Cancer, COLO 205, single dose
Excerpt: as §1

HOP-92 = assay: NCI 60 cell line panel, single dose; format: cell-based; conditions: Non-Small Cell Lung Cancer, HOP-92, single dose
Excerpt: as §1

HCT-116 = assay: NCI 60 cell line panel, single dose; format: cell-based; conditions: Colon Cancer, HCT-116, single dose
Excerpt: as §1

HT29 = assay: NCI 60 cell line panel, single dose; format: cell-based; conditions: Colon Cancer
Excerpt: as §1

CAKI-1 = assay: NCI 60 cell line panel, single dose; format: cell-based; conditions: Renal Cancer, CAKI-1, single dose
Excerpt: as §1

NCI-H322M = assay: NCI 60 cell line panel, single dose; format: cell-based; conditions: Non-Small Cell Lung Cancer
Excerpt: as §1

SNB-19 = assay: NCI 60 cell line panel, single dose; format: cell-based; conditions: CNS Cancer, SNB-19, single dose
SF-268 = assay: NCI 60 cell line panel, single dose; format: cell-based; conditions: CNS Cancer, SF-268, single dose
SF-295 = assay: NCI 60 cell line panel, single dose; format: cell-based; conditions: CNS Cancer, SF-295, single dose
SNB-75 = assay: NCI 60 cell line panel, single dose; format: cell-based; conditions: CNS Cancer, SNB-75, single dose

C=C[C@H]1C[N@@]2CC[C@H]1C[C@H]2[C@H](O)c1ccnc2ccc(OC)cc12 [Quinine]
pKa1 [1]: approximately 4.2 | pKa2 [1]: 8.5

copper(II)-(quinine)2^+ [CuQ2]
Growth Percent (SF-539): 102.4% | Growth Percent (U251): 83.16% | Growth Percent (SK-OV-3): 95.07% | Growth Percent (EKVX): 119.3% | Growth Percent (ACHN): 100.6% | Growth Percent (T-47D): 100.1% | Growth Percent (HS 578T): 117.5% | Growth Percent (OVCAR-8): 103.8% | Growth Percent (DU-145): 113.3% | Growth Percent (SW-620): 111% | Growth Percent (SK-MEL-28): 109.2% | Growth Percent (HL-60(TB)): 106.2% | Growth Percent (UACC-257): 93.34% | Growth Percent (MDA-MB-231/ATCC): 82.36% | Growth Percent (CCRF-CEM): 100.1% | Growth Percent (HOP-62): 132.7% | Growth Percent (NCI/ADR-RES): 105% | Growth Percent (UO-31): 92.23% | Growth Percent (OVCAR-4): 110.4% | Growth Percent (NCI-H226): 103.6% | Growth Percent (A549/ATCC): 88.43% | Growth Percent (MDA-MB-435): 91.47% | Growth Percent (MCF7): 84.97% | Growth Percent (NCI-H23): 104.3% | Growth Percent (LOX IMVI): 80.61% | Growth Percent (MALME-3M): 105.7% | Growth Percent (SR): 80.32% | Growth Percent (MOLT-4): 96.49% | Growth Percent (MDA-MB-468): 117.8% | Growth Percent (RPMI-8226): 105.8% | Growth Percent (RXF 393): 139.9% | Growth Percent (IGROV1): 124.1% | Growth Percent (HCT-15): 98.35% | Growth Percent (BT-549): 107.4% | Growth Percent (OVCAR-5): 116.2% | Growth Percent (KM12): 91.04% | Growth Percent (NCI-H522): 94.89% | Growth Percent (UACC-62): 84.78% | Growth Percent (HCC-2998): 108.9% | Growth Percent (OVCAR-3): 120% | Growth Percent (SK-MEL-2): 95.24% | Growth Percent (M14): 101.1% | Growth Percent (786-0): 120.5% | Growth Percent (SN12C): 109.4% | Growth Percent (TK-10): 115% | Growth Percent (NCI-H460): 105.8% | Growth Percent (COLO 205): 91.74% | Growth Percent (HOP-92): 88.14% | Growth Percent (HCT-116): 96.95% | Growth Percent (HT29): 84.68% | Growth Percent (CAKI-1): 109.9% | Growth Percent (NCI-H322M): 119.9% | Growth Percent (SNB-19): 108.7% | Growth Percent (SF-268): 125.4% | Growth Percent (SF-295): 85.7% | Growth Percent (SNB-75): 126.4%
